In PMC11173677, “Identification and Evaluation of Olive Phenolics in the Context of Amine Oxidase Enzyme Inhibition and Depression: In Silico Modelling and In Vitro Validation” (Molecules, 2024):

How the values were obtained:
Type in all cases: cell-based, human
MAO-A = system: T1, MAO-A; experiment: MAO-A activity assay in hESC-derived neurons stimulated with ATRA; settings: 1 μM ATRA 24 h, then TCP 5 μM, OLC 50 μM or OLP 50 μM for 24 h
T1 construct: endogenous in cells; host or cells: BJ human foreskin fibroblasts stimulated with DEX or HC
Protocol: (§1) An in vitro model of MDD was designed for stem cell-derived neuronal cells through incubation of 1 μM all-trans retinoic acid (Sigma-Aldrich PHR1187, St. Louis, MO, USA). All cell treatments were conducted in duplicate and replicated using independently differentiating neuronal plates.
(§2) Activity assays were commercially sourced from BioVision (Abcam, BioVision ab241031, Waltham, MA, USA) and were performed according to manufacturer’s instructions. The treatment groups were plated in duplicate on a black, flat 96-well microplate. The cells were homogenised in assay buffer using a microtube mixer at 4 °C and centrifuged at 10,000× g for 10 min. A Bradford assay was performed to determine the total protein concentration within each cell pellet (200 μg/well for BJ cells, 40 μg/well for hESC-derived neurons). Approximately 40 μL of supernatant was loaded into wells along with 10 μL of either […], or assay buffer for total MAO activity. A H2O2 standard was pipetted as supplied and 50 μL of reaction mix was pipetted into all wells. Using a CLARIOstar Plus Microplate Reader, (BMG Labtech, Ortenberg, Germany), fluorescence was measured kinetically at 25 °C for 60 min with Ex/Em = 535/587 nm.

total MAO [1] = experiment: Total MAO activity assay in corticosteroid-stimulated BJ cells; settings: then 50 μM compound 24 h
Protocol: The BJ cells were subsequently incubated with 10 μM HC or 100 μM DEX to stimulate MAO expression. […] The untreated BJ cells received normal growth medium. The cells were collected, homogenised, and analysed through Western blotting where the expression of MAO-A/B was determined through immunodetection of protein subtypes.
as §2

MAO-B = system: T2, MAO-B; experiment: MAO-B activity assay in hESC-derived neurons stimulated with ATRA; settings: 1 μM ATRA 24 h, then TCP 5 μM, OLC 50 μM or OLP 50 μM for 24 h
T2 construct: endogenous in cells; host or cells: BJ human foreskin fibroblasts stimulated with DEX or HC
Protocol: as §1, §2

LSD1 = system: T3, LSD1; experiment: LSD1 activity in nuclear extracts of BJ cells stimulated with DEX; settings: DEX 50 μM 72 h, then TCP 5 μM or OLP, HT, HTA 50 μM for 48 h
T3 construct: nuclear proteins extracted from the BJ cultures were directly assayed for LSD1 activity; endogenous in cells; host or cells: BJ human foreskin fibroblasts (nuclear extract, DEX-stimulated)
Protocol: Histone demethylase LSD1 activity assay
4µL of nuclear extracts containing 5µg protein was added to designated strip wells with stably
captured LSD1 substrate (H3K4me2), followed by an additional 26µL of H3K4me2 (HG3)
substrate diluted in assay buffer (HG2). In no enzyme control wells, the 4µL of nuclear
extracts was replaced with 4µL of assay buffer. Blank wells contained 30µL of assay buffer.
A standard curve was generated by adding 1µL of standard (HG4) at incrementally increasing
concentrations (0.1-10ng/µL) to 29µL of assay buffer in designated standard wells. After all
wells were loaded appropriately, the assay plate was incubated away from light at room
temperature for 60 minutes. Following incubation, contents were aspirated and wells were
washed three times with 150µL of wash buffer (HG1). 50µL of capture antibody (HG5)
diluted at a 1:1000 ratio was then added to all wells before incubating at room temperature
for 60 minutes on a rotating platform. Well contents were then aspirated and washed four
times with 150µL of wash buffer. 50µL of detection antibody (HG6) diluted at a 1:1000 ration
was then added to each well. Assay plate was then incubated for a final time at room
temperature for 30 minutes. Well contents were aspirated again, followed by six washes with
150µL wash buffer. 50µL of fluoro-developer (HG7) was then added into each well and
allowed to develop away from light for 1-5 minutes. Fluorescence was then read on a
CLARIOstar Microplate Reader (BMG Labtech, Ortenberg Germany) at Ex/Em =

total MAO [2] = experiment: Total MAO activity assay in hESC-derived neurons stimulated with ATRA; settings: 1 μM ATRA 24 h, then TCP 5 μM, OLC 50 μM or OLP 50 μM for 24 h
Protocol: as §1, §2

H3K4 mono-methylation = H3K4 mono-methylation in BJ cells (Western blotting); settings: 50 μM, 48 h, compared to untreated cells; effects more pronounced with DEX
Protocol: As described in the Supplementary Information, nuclear proteins extracted from the BJ cultures were directly assayed for LSD1 activity (Epigentek P-3076, Farmingdale, NY, USA). Fluorescence was read on a CLARIOstar Microplate Reader (BMG Labtech, Ortenberg, Germany) at Ex/Em = 530/590 nm (Figure S4). Histone proteins were extracted from the treated cultures and were analysed through Western blotting. The mono-methylation status of lysine on histone 3 (H3K4) was determined via immunodetection (Table S6).
100µL of Nuclear Extraction Buffer containing 0.2µL 1M DTT and 0.4µL PIC was then added to the remaining nuclei-containing pellets. Full resuspension was achieved through multiple rounds of vigorous vortexing and ice incubations (to maintain protein integrity). Once the entire pellet was visibly resuspended in NEB, tubes were centrifuged at 16,000g for 10 minutes. The resulting supernatant containing the nuclear extract fraction was transferred to clean 0.5mL tubes and stored at -80°C.
Acid extraction of histone proteins
Cells were washed in 10mL of pre-chilled PBS (1X) and detached from flask surface via mechanical disruption using a cell scraper. Cell solution was then transferred into a 15mL tube and centrifuged at 150g for 10 minutes. Supernatant was then discarded and the remaining cell pellet resuspended in 0.5mL PBS (1X) and transferred into a 1.5mL microcentrifuge tube. Cells were then centrifuged at 9400g for 20 seconds, after which the supernatant was removed and discarded. The remaining pellet was then briefly resuspended in 600µL of acid extraction lysis buffer (10mM KCl, 10mM HEPES, […]) containing cOmplete™ Mini Protease Inhibitor Cocktail (Sigma-Aldrich, Roche 11836153001, MO USA) and 0.3µL 1M DTT. This will cause cells to pre-swell, resulting in a reduced amount of PBS (1X) remaining in the microcentrifuge tube that may deter maximal cell lysis capacity. Cells were then centrifuged at 9400g for 20 seconds with the resultant supernatant aspirated and discarded. […]

Structure (SMILES): COC(=O)[C@H](O)CC(=O)OCCc1ccc(O)c(O)c1 [OLP, oleohydroxypyretol]
- MAO-A activity in hESC-derived neurons (MAO-A): significantly reduced
- total MAO activity in BJ cells (total MAO [1]; 10 μM HC 5 days): downregulate
- total MAO activity in BJ cells (total MAO [1]; 100 μM DEX 7 days): downregulate
- MAO-B activity in hESC-derived neurons (MAO-B): significantly reduced
- LSD1 activity in BJ cultures stimulated with DEX (LSD1): significant reduction
- total MAO activity in hESC-derived neurons (total MAO [2]): significantly reduced
- baseline levels of H3K4 mono-methylation in BJ cells (H3K4 mono-methylation): increased
